Drawing on patent publication US11072617B2, “Bicyclic sulfones and sulfoxides and methods of use thereof” (Genentech, Inc., priority 2017, dated 2021), this text covers Ki for 36 compounds.

Sequence of human RIP1 kinase domain (2-375) (Q13546 2-375): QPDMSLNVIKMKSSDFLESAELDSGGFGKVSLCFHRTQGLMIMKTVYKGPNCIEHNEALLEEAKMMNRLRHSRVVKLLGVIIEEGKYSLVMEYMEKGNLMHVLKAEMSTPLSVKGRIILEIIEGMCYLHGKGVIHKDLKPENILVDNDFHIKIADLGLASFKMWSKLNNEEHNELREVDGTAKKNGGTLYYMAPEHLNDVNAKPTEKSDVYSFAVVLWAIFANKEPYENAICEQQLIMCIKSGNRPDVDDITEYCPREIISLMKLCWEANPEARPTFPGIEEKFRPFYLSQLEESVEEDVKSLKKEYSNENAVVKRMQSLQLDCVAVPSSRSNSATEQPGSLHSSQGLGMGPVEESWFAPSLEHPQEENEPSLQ

This assay concerns the target human RIP1 kinase domain (2-375) (Homo sapiens (Human), UniProt Q13546). The assay is described as follows: RIP1 kinase inhibition biochemical assay (Transcreener ADP, fluorescence polarization). Particulars: Ki app from tight-binding Morrison equation; 50 nM enzyme, 50 uM ATP, 2 hours incubation. The essentials:
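Baculovirus-expressed human RIP1 kinase domain (2-375), 50 nM, incubated 2 h with compounds in pH 7.5 Hepes, 30 mM MgCl2, 50 uM ATP, 0.5% DMSO. ADP detected by Transcreener fluorescence-polarization tracer displacement; Ki^app from Morrison tight-binding fit.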
(Polarisation of emitted light reports the rotation of a fluorescent probe.)
`O=S(=O)(c1nc2n(n1)[C@H](c1cc(F)cc(F)c1)C[C@@H]2F)[C@H]1C[C@H](F)C1` (single isomer, unassigned) [Example 193] returned a Ki of 23 nM. In turn, `O=S(=O)(c1nc2n(n1)[C@H](c1cccc(F)c1)C[C@@H]2F)[C@H]1C[C@@H](O)C1` (single isomer, unassigned) [Example 195] gave a Ki of 460 nM.

Consider `O=S(=O)(CCOC(F)F)c1nc2n(n1)[C@H](c1ccccc1)C[C@@H]2F` (single isomer, unassigned) [Example 198], for which the Ki was determined as 68 nM. The figure for `O=S(=O)(c1nc2n(n1)[C@H](c1cc(F)cc(Cl)c1)C[C@@H]2F)C1CC1` (single isomer, unassigned) [Example 214] is 29 nM; for `O=S(=O)(c1nc2n(n1)[C@H](c1cc(F)cc(Cl)c1)C[C@@H]2F)C(F)F` (single isomer, unassigned) [Example 215] it is 32 nM.

Take `O=S(=O)(c1nc2n(n1)[C@H](c1cccc(F)c1F)C[C@@H]2F)[C@H]1C[C@@H]1F` (single isomer, unassigned) [Example 217]: the Ki stood at 6 nM. As for `O=S(=O)(CCO)c1nc2n(n1)[C@H](c1ccccc1)C[C@@H]2F` (single isomer, unassigned) [Example 223], the figure is 190 nM; as for `COCCS(=O)(=O)c1nc2n(n1)[C@H](c1ccccc1)C[C@@H]2F` (single isomer, unassigned) [Example 224], 180 nM. As for `O=S(=O)(c1nc2n(n1)[C@H](c1ccccc1)C[C@@H]2F)[C@H]1C[C@@H](O)C1` (single isomer, unassigned) [Example 225], the Ki worked out at 300 nM. For the compound `O=S(=O)(c1nc2n(n1)[C@H](c1cccc(F)c1)C[C@@H]2F)[C@H]1C[C@H](F)C1` (single isomer, unassigned) [Example 226], the Ki amounted to 9.3 nM.

`O=S(=O)(c1nc2n(n1)[C@H](c1ccccc1)C[C@@H]2F)C1COC1` (single isomer, unassigned) [Example 228]: the Ki worked out at 6 nM. As for `[O-][S+](c1nc2n(n1)[C@H](c1cc(F)cc(F)c1)CC2)C(F)F` (stereo in doubt) [Example 173, (5S)-2-[(S)-difluoromethylsulfinyl]-5-(3,5-difluorophenyl)-6,7-dihydro-5H-pyrrolo[1,2-b][1,2,4]triazole], the figure is 19 nM. Regarding `[O-][S+](c1nc2n(n1)[C@H](c1cc(F)cc(F)c1)CC2)C(F)F` (stereo in doubt) [Example 174, (5S)-2-[(R)-difluoromethylsulfinyl]-5-(3,5-difluorophenyl)-6,7-dihydro-5H-pyrrolo[1,2-b][1,2,4]triazole], the Ki turned out to be 310 nM. With `O=S(=O)(c1nc2n(n1)[C@H](c1ccc(F)cc1)C[C@@H]2F)C1CC1F` (stereo in doubt) [Example 196, (5S,7S)-7-fluoro-5-(4-fluorophenyl)-2-[(1S,2S)-2-fluorocyclopropyl]sulfonyl-6,7-dihydro-5H-pyrrolo[1,2-b][1,2,4]triazole], the Ki was 32 nM. The figure for `O=S(=O)(c1nc2n(n1)[C@H](c1ccc(F)cc1)C[C@@H]2F)C1CC1F` (stereo in doubt) [Example 197, (5S,7S)-7-fluoro-5-(4-fluorophenyl)-2-[(1R,2R)-2-fluorocyclopropyl]sulfonyl-6,7-dihydro-5H-pyrrolo[1,2-b][1,2,4]triazole] is 8 nM. As for `O=S(=O)(c1nc2n(n1)[C@H](c1cc(F)cc(Cl)c1)C[C@@H]2F)C1CC1F` (stereo in doubt) [Example 199, (5S,7S)-5-(3-chloro-5-fluoro-phenyl)-7-fluoro-2-[(1S,2S)-2-fluorocyclopropyl]sulfonyl-6,7-dihydro-5H-pyrrolo[1,2-b][1,2,4]triazole], the figure is 8 nM; as for `O=S(=O)(c1nc2n(n1)[C@H](c1cc(F)cc(Cl)c1)C[C@@H]2F)C1CC1F` (stereo in doubt) [Example 200, (5S,7S)-5-(3-chloro-5-fluoro-phenyl)-7-fluoro-2-[(1R,2R)-2-fluorocyclopropyl]sulfonyl-6,7-dihydro-5H-pyrrolo[1,2-b][1,2,4]triazole], 48 nM; as for `O=S(=O)(c1nc2n(n1)[C@H](c1cc(F)ccc1F)C[C@@H]2F)C1CC1F` (stereo in doubt) [Example 201, (5S,7S)-5-(2,5-difluorophenyl)-7-fluoro-2-[(1S,2S)-2-fluorocyclopropyl]sulfonyl-6,7-dihydro-5H-pyrrolo[1,2-b][1,2,4]triazole], 25 nM. For the compound `O=S(=O)(c1nc2n(n1)[C@H](c1cc(F)ccc1F)C[C@@H]2F)C1CC1F` (stereo in doubt) [Example 202, (5S,7S)-5-(2,5-difluorophenyl)-7-fluoro-2-[(1R,2R)-2-fluorocyclopropyl]sulfonyl-6,7-dihydro-5H-pyrrolo[1,2-b][1,2,4]triazole], the Ki is less than 5 nM.

With `O=S(=O)(c1nc2n(n1)[C@H](c1ccccc1F)C[C@@H]2F)C1CC1F` (stereo in doubt) [Example 205, (5S,7S)-7-fluoro-5-(2-fluorophenyl)-2-[(1S,2S)-2-fluorocyclopropyl]sulfonyl-6,7-dihydro-5H-pyrrolo[1,2-b][1,2,4]triazole], the Ki came out at 20 nM. Compound `O=S(=O)(c1nc2n(n1)[C@H](c1ccccc1F)C[C@@H]2F)C1CC1F` (stereo in doubt) [Example 206, (5S,7S)-7-fluoro-5-(2-fluorophenyl)-2-[(1R,2R)-2-fluorocyclopropyl]sulfonyl-6,7-dihydro-5H-pyrrolo[1,2-b][1,2,4]triazole] came in with a Ki of 10 nM. For the compound `O=S(=O)(c1nc2n(n1)[C@H](c1cc(Cl)ccc1F)C[C@@H]2F)C1CC1F` (stereo in doubt) [Example 207, (5S,7S)-5-(5-chloro-2-fluoro-phenyl)-7-fluoro-2-[(1S,2S)-2-fluorocyclopropyl]sulfonyl-6,7-dihydro-5H-pyrrolo[1,2-b][1,2,4]triazole], the Ki is 37 nM. As for `O=S(=O)(c1nc2n(n1)[C@H](c1cccc(F)c1F)C[C@@H]2F)C1CC1F` (stereo in doubt) [Example 216, (5S,7S)-5-(2,3-difluorophenyl)-7-fluoro-2-[(1S,2S)-2-fluorocyclopropyl]sulfonyl-6,7-dihydro-5H-pyrrolo[1,2-b][1,2,4]triazole], the figure is less than 5 nM; as for `O=S(=O)(c1nc2n(n1)[C@H](c1cc(Cl)ccc1F)C[C@@H]2F)C1CC1F` (stereo in doubt) [Example 218, (5S,7S)-5-(5-chloro-2-fluoro-phenyl)-7-fluoro-2-[(1R,2R)-2-fluorocyclopropyl]sulfonyl-6,7-dihydro-5H-pyrrolo[1,2-b][1,2,4]triazole], 140 nM. As for `N#CC1CC1S(=O)(=O)c1nc2n(n1)[C@H](c1ccccc1)C[C@@H]2F` (stereo in doubt) [Example 221, (1S,2S)-2-[[(5S,7S)-7-fluoro-5-phenyl-6,7-dihydro-5H-pyrrolo[1,2-b][1,2,4]triazol-2-yl]sulfonyl]cyclopropanecarbonitrile], the figure is 18 nM; as for `N#CC1CC1S(=O)(=O)c1nc2n(n1)[C@H](c1ccccc1)C[C@@H]2F` (stereo in doubt) [Example 222, (1R,2R)-2-[[(5S,7S)-7-fluoro-5-phenyl-6,7-dihydro-5H-pyrrolo[1,2-b][1,2,4]triazol-2-yl]sulfonyl]cyclopropanecarbonitrile], 61 nM. The figure for `[O-][S+](c1nc2n(n1)C(c1ccccc1)CC2)C(F)F` (stereo not drawn) [Example 1, 2-(difluoromethylsulfinyl)-5-phenyl-6,7-dihydro-5H-pyrrolo[1,2-b][1,2,4]triazole] is 58 nM; for `CC[S@+]([O-])c1nc2n(n1)[C@H](c1ccccc1)CC2` [Example 3, (5S)-2-[(S)-ethylsulfinyl]-5-phenyl-6,7-dihydro-5H-pyrrolo[1,2-b][1,2,4]triazole] it is 162 nM. As to `[O-][S+](c1nc2n(n1)C(c1ccccc1)CC2)C(F)(F)c1ccccc1` (stereo not drawn) [Example 5, 2-[difluoro(phenyl)methyl]sulfinyl-5-phenyl-6,7-dihydro-5H-pyrrolo[1,2-b][1,2,4]triazole], the Ki came out at 548 nM. The compound `[O-][S+](c1nc2n(n1)C(c1ccccc1)CC2)C(F)(F)F` (stereo not drawn) [Example 10, 5-phenyl-2-(trifluoromethylsulfinyl)-6,7-dihydro-5H-pyrrolo[1,2-b][1,2,4]triazole] came in with a Ki of 89 nM. On to `[O-][S@+](c1nc2n(n1)[C@H](c1ccccc1)CC2)C(F)F` [Example 11, (5S)-2-[(R)-difluoromethylsulfinyl]-5-phenyl-6,7-dihydro-5H-pyrrolo[1,2-b][1,2,4]triazole], for which the Ki was 10 nM.

Regarding `[O-][S@@+](c1nc2n(n1)[C@H](c1ccccc1)CC2)C(F)F` [Example 12, (5S)-2-[(S)-difluoromethylsulfinyl]-5-phenyl-6,7-dihydro-5H-pyrrolo[1,2-b][1,2,4]triazole], the Ki was determined as 48 nM. As for `O=S(=O)(c1nc2n(n1)[C@@H](c1ccccc1Cl)CC2)C(F)F` [Example 15, (5R)-5-(2-chlorophenyl)-2-(difluoromethylsulfonyl)-6,7-dihydro-5H-pyrrolo[1,2-b][1,2,4]triazole], the figure is 1600 nM. In turn, `O=S(=O)(c1nc2n(n1)[C@H](c1ccccc1Cl)CC2)C(F)F` [Example 16, (5S)-5-(2-chlorophenyl)-2-(difluoromethylsulfonyl)-6,7-dihydro-5H-pyrrolo[1,2-b][1,2,4]triazole] showed a Ki of 56 nM. `[O-][S@@+](c1nc2n(n1)[C@H](c1ccccc1Cl)CC2)C(F)F` [Example 17, (5S)-5-(2-chlorophenyl)-2-[(S)-difluoromethylsulfinyl]-6,7-dihydro-5H-pyrrolo[1,2-b][1,2,4]triazole] had a Ki of 50 nM.

In the case of `[O-][S@+](c1nc2n(n1)[C@H](c1ccccc1Cl)CC2)C(F)F` [Example 18, (5S)-5-(2-chlorophenyl)-2-[(R)-difluoromethylsulfinyl]-6,7-dihydro-5H-pyrrolo[1,2-b][1,2,4]triazole], the Ki stood at 8 nM.
